# Assay results taken from US8361797B2, “Myeloma cell culture in transferrin-free low iron medium” (Medimmune Limited, priority 2003, dated 2013).
# “Also recorded” adds a separate entry of the source. Where two headings read alike, the source gives them in different places.
# Tests used:
# [1] = system: recombinant GS-NS0 mouse myeloma cell line (Cell line A); assay type: cell-based
# [2] = system: recombinant GS-NS0 mouse myeloma cell line (Cell line A); assay type: cell-based; remark: listed apart in the source
# hybridoma cell lines = conditions: cited from earlier work
# hybridoma cells = conditions: cited from earlier work
# [3] = system: recombinant GS-NS0 cell line (Cell line B)
# Description: Cells resuspended in this medium were then used to inoculate experimental flasks at an inoculation density of 2×10^5 cells/ml.
# All flasks were also supplemented with 1 ml/L of a 1000× concentrated cholesterol and fatty acid supplement (CLOC).
# Flasks were subcultured by dilution with fresh medium back to 2×10^5 cells/ml at 5 day intervals. On the second subculture flasks were allowed to overgrow to saturation. Cell counts were performed using the trypan blue exclusion method. Antibody titre analysis was performed using analytical protein A hplc against a homologous standard.
# [4] = system: recombinant NS0 mouse myeloma cell line selected using a G418 selection system; conditions: 1 mg/L FAC vs 1 mg/L transferrin and 0.1 mg/L FAC
# Excerpt: After 5 days, flasks were subcultured and then allowed to follow the full growth cycle.
# cell line A = conditions: 1 mg/L FAC, serum free and protein free GSF medium
# Excerpt: Innoculum for these fermentations was provided by subculture of the cells in media the same as that used in the fermentations.
# [5] = system: GS-NSO cell lines (Cell Lines C, D and E); conditions: protein free FAC medium, 4.5 L and 100 L
# Description: Cell Line C was grown at both 4.5 and 100 L scale, Cell Line D at 4.5 L scale and Cell Line E at 100 L scale.
# [6] = system: mouse hybridoma cell line (9E10)
# Description: A mouse hybridoma cell line (9E10), producing anti-Myc antibody, previously subcultured in modified CDSS supplemented with 1 mg/L human transferrin and 6 mM Glutamine was used to inoculate experimental flasks at an inoculation density of 1×10^5 cells/ml.
# Flasks were subcultured by dilution with fresh medium back to 1×10^5 cells/ml at 3 day intervals. On the third subculture flasks were allowed to overgrow. Cell counts were performed using the trypan blue exclusion method.
# NSO myeloma cell lines = conditions: FAC alone, 0.2 mg/L; cited from earlier work
compound,measurement,setting,value
"O=C([O-])CC(O)(CC(=O)[O-])C(=O)[O-].[Fe+3] [FC, ferric citrate]",antibody titre compared to the transferrin containing control,[1],"at least as much, and in the case of 10 mg/L FC significantly more antibody"
same,concentration giving growth equivalent to transferrin containing control (maximum viable cell number and area underneath the growth curve),[2],≥ 10 mg/L
same,concentration of FC relative to FAC required for cell growth equivalent to transferrin,[2],10 ×
same,proliferation over subcultures,[2],unable to proliferate beyond the first subculture; also recorded: unable to proliferate beyond the second subculture
same,concentration required to support hybridoma cell growth with equivalence to transferrin,hybridoma cell lines,500 µM
"O=c1cccccc1O [tropolone, reference compound]",optimum concentration,hybridoma cells; tropolone used with FAC,5 µM
ferric ammonium citrate [FAC],more antibody produced at 0.4 mg/L than at 100 mg/L,[1]; culture with 0.4 mg/L vs culture with 100 mg/L,over 30%
same,antibody titre compared to the transferrin containing control,"[1]; overgrow cultures, sandwich ELISA","at least as much, and in the majority of the cases significantly more antibody"
same,proliferation over subcultures,[2]; 0.2 mg/L,"able to proliferate after the first division, but was then unable to grow further"
same,concentration able to support continuous cell growth,[2]; duplicate of the experiment (FIG. 1c),0.2 mg/L
same,concentration able to support continuous cell growth over several subcultures and during the overgrow culture,"[2]; modified CDSS, no transferrin, agitated suspension, three subcultures at 3 day intervals",≥ 0.4 mg/L
same,concentration giving growth equivalent to transferrin containing control (maximum viable cell number and area underneath the growth curve),[2]; overgrow cultures,≥ 1 mg/L
same,concentration supporting growth equivalent to positive control culture,"[3]; control 5 μM tropolone and 0.4 mg/L FAC, GSF medium",≥ 0.8 mg/L
same,concentration supporting antibody production at least equivalent to control,"[3]; overgrow cultures, protein A hplc",≥ 0.8 mg/L
same,growth vs transferrin containing medium,[4],Equivalent growth
same,support of hybridoma growth,"hybridoma cell lines; 10 mg/L, static culture, WO 94/02592",able to support hybridoma growth in static culture
same,support of hybridoma growth,"hybridoma cells; 10 mg/L, agitated suspension culture, WO 94/02592",this was not the case in agitated suspension culture
same,support of hybridoma growth,"hybridoma cells; FAC alone, between 0.1 and 10 mg/L, no transferrin or tropolone",incapable of supporting the growth of hybridoma cells
same,optimum concentration,hybridoma cells; FAC used with tropolone,0.2 mg/L
same,growth and antibody production,cell line A,able to support good growth and antibody production in both media
same,growth and antibody productivity,[5],"supports good growth of, and antibody productivity in, a wide range of cell lines"
same,proliferation over subcultures,[6]; 0.2 mg/L,unable to proliferate beyond the first subculture
same,proliferation over subcultures,[6]; 0.4 mg/L,unable to proliferate beyond the first subculture
same,proliferation over subcultures,[6]; 1 mg/L,unable to proliferate beyond the second subculture
same,proliferation over subcultures,[6]; 2 mg/L,unable to proliferate beyond the second subculture
same,proliferation over subcultures,[6]; 10 mg/L,unable to proliferate beyond the second subculture
same,FAC concentration required by hybridoma cell lines relative to GS-NS0 cells for continuous cell growth,[6]; agitated suspension culture,> 100 ×
same,concentration required to support growth,"[6]; hybridoma 9E10, agitated suspension",≥ 50 mg/L
same,"concentration required for growth equivalent to transferrin containing control, maximum viable cell number",[6]; overgrow cultures,100 mg/L
same,"concentration giving growth equivalent to transferrin containing control, cumulative cell hours (CCH)","[6]; overgrow cultures, integral of area underneath growth curve",50 mg/L
same,support of NSO myeloma growth,NSO myeloma cell lines,could not support the growth of the NSO myeloma cell lines
